Paper PMC6532911, “Oryza sativa Brittle Culm 1-like 6 modulates β-glucan levels in the endosperm cell wall” (PLoS ONE, 2019)

Target: T1, CBM-GST (CBM of OsBC1L6) (Oryza sativa, UniProt Q6Z4G8)
T1 construct: gene BC1L6; wheat germ cell-free expression; 48 kDa by SDS-PAGE
T1 sequence (Q6Z4G8 31-191): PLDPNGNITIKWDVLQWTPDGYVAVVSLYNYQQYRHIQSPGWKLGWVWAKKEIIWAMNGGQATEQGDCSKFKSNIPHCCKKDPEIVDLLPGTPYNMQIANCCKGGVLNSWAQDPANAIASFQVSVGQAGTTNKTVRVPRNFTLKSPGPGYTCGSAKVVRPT
Assay: surface plasmon resonance (Biacore T200)
Format: binding
Settings: CBM-GST captured by anti-GST on CM5 chip; HBS-EP pH 7.4, 25°C

Kd [µM]	Structure (SMILES)
852	OC[C@H]1O[C@@H](O[C@H]2[C@H](O)[C@@H](O)[C@H](O[C@H]3[C@H](O)[C@@H](O)[C@H](O[C@H]4[C@H](O)[C@@H](O)[C@H](O[C@H]5[C@H](O)[C@@H](O)[C@H](O[C@H]6[C@H](O)[C@@H](O)C(O)O[C@@H]6CO)O[C@@H]5CO)O[C@@H]4CO)O[C@@H]3CO)O[C@@H]2CO)[C@H](O)[C@@H](O)[C@@H]1O (some centres unmarked) [GGGGGG, cellohexaose]
760	OC1OC[C@@H](O[C@@H]2OC[C@@H](O[C@@H]3OC[C@@H](O[C@@H]4OC[C@@H](O[C@@H]5OC[C@@H](O[C@@H]6OC[C@@H](O)[C@H](O)[C@H]6O)[C@H](O)[C@H]5O)[C@H](O)[C@H]4O)[C@H](O)[C@H]3O)[C@H](O)[C@H]2O)[C@H](O)[C@H]1O (some centres unmarked) [XXXXXX, xylohexaose]
